Test [1] is described as follows: 6-Minute Walk Test in a clinical study. As to conditions: all dose groups, week 6 and week 12. It is filed as in vivo, human. The procedure: One physical performance endpoint in a clinical study was to determine whether the test compound, 2-amino-N-[2-(3a-(R)-benzyl-2-methyl-3-oxo-2,3,3a,4,6,7-hexahydro-pyrazolo[4,3-c]pyridin-5-yl)-1-(R)-benzyloxymethyl-2-oxo-ethyl]-isobutyramide, L-tartrate, increased the six-minute walk distance in subjects with mild-to-moderate congestive heart failure. There were four dose groups, 3 mg po tid; 6 mg po tid; 10 mg po q am, and placebo.
The six-minute walk study was performed at baseline, week 6, and week 12. The purpose of this test was to determine how many feet an individual can walk within six-minutes.

For test [2] the following is noted: obese young males; cited from earlier work.
For test [3] the following is noted: canines during remobilization; cited from earlier work.
The conditions of test [4]: adult female rats; cited from earlier work.

Where a SMILES comes first, the peptide text is derived from it. [ ]: non-standard residue; d: D form. d2Nal = N[C@H](Cc1ccc2ccccc2c1)C(=O)O; Aib = CC(C)(N)C(=O)O

As to `CN1N=C2CCN(C(=O)[C@@H](COCc3ccccc3)NC(=O)C(C)(C)N)C[C@@]2(Cc2ccccc2)C1=O.O=C(O)C(O)C(O)C(=O)O` [2-amino-N-[2-(3a-(R)-benzyl-2-methyl-3-oxo-2,3,3a,4,6,7-hexahydro-pyrazolo[4,3-c]pyridin-5-yl)-1-(R)-benzyloxymethyl-2-oxo-ethyl]-isobutyramide, L-tartrate], the “six-minute walk distance, change from baseline” value in test [1] is “increased in all dose groups at both 6 and 12 weeks”.
`CC(C)(N)C(=O)N[C@H](COCc1ccccc1)C(=O)N1CCC2(CC1)CN(S(C)(=O)=O)c1ccccc12` [MK-0677]: in test [2], the “markers of bone formation and bone resorption” value is “increases”. Besides, in test [3], the “levels of serum insulin-like growth factor-I” value was “elevated”; the “size and strength of the quadriceps muscle” value is given as “increased”.
`CC(C)(N)C(=O)N[C@@H](Cc1c[nH]cn1)C(=O)N[C@H](Cc1ccc2ccccc2c1)C(=O)N[C@H](Cc1ccccc1)C(=O)N[C@@H](CCCCN)C(N)=O` [ipamorelin] (H-[Aib]H[d2Nal][dF]K-NH2): the bone mass result in test [4] was “have the capacity to increase bone mass”.
On to GHRP-6, for which, in test [4], the bone mass entry is listed as “have the capacity to increase bone mass”.

(Values after patent US20040122062A1, “Use of growth hormone secretagogues for treatment of physical performance decline” (Pfizer Inc, priority 2000, published 2004).)
